Consider seven molecules from patent publication US12653809B2, “Urea, amide, and substituted heteroaryl compounds for CBL-B inhibition” (Nurix Therapeutics, Inc., priority 2019, dated 2026).

In assay [1] the target is T1, Cbl-b (truncated variant, UniProt number Q13191) (Homo sapiens, UniProt Q13191).
T1 construct: made in house
Nature of the assay: Cbl-b displacement assay (Cbl-b inhibition assay, fluorophore-labeled probe). Type of assay: binding. The text has this: As described in Biological Example 1A, a Cbl-b activity assay (Cbl-b inhibition assay) used to measure the IC50 values for Cbl-b inhibition uses a mixture comprising candidate compound, Cbl-b (truncated, with an Avitag, and biotinylated), a fluorescently-labeled E2 enzyme UbcH5B labelled with ubiquitin conjugated to BODIPY-fluorescein (UbcH5B-Ub), streptavidin-terbium, and assay buffer. In one embodiment, the Cbl-b activity assay (Cbl-b inhibition assay) used to measure IC50 for inhibition of Cbl-b uses the conditions described in Biological Example 1A with 12 nM Cbl-b. […] In another embodiment, the Cbl-b activity assay (Cbl-b inhibition assay) used to measure IC50 for inhibition of Cbl-b uses the conditions described in Biological Example 1B, with candidate compound, 0.125 nM Cbl-b (truncated, with an avitag, and biotinylated), fluorescently labelled inhibitor probe, and assay buffer. Displacement of the inhibitor probe indicates Cbl-b activity.
Candidate compounds were evaluated for their ability to bind and inhibit Cbl-b, an E3 ubiquitin-protein ligase, as evidenced by their ability to displace a fluorophore-labeled probe (Example 168) bound to Cbl-b.
The ability of candidate compounds to displace a known inhibitor and thereby inhibit Cbl-b activity was measured by monitoring the interaction of Cbl-b with a fluorophore-labeled probe in the presence of the candidate compound. A truncated variant of Cbl-b (UniProt number Q13191; SEQ ID NO:1) containing an Avitag at its N-terminus was co-expressed with BirA biotin ligase and purified using a standard protocol (see Dou et al., Nature Structural and Molecular Biology, 8: 982-987, 2013; Avidity LLC).
Fluorescently-labeled inhibitor probe was synthesized and tagged with BODIPY FL (Example 168). Cbl-b displacement assays were performed in a 384-well plate at room temperature in a 10 μL reaction volume by pre-incubating 0.125 nM Cbl-b (final concentration) in an assay buffer containing 20 mM HEPES pH 7.5, 150 mM NaCl, 0.01% Triton X-100, 0.01% BSA, and 0.5 mM TCEP in the presence of a candidate compound in 1% DMSO (final concentration) for one hour. After incubation in the presence of the candidate compound, the plate was incubated for an additional one hour in the presence of an approximate EC40 binding saturation consisting of 150 nM fluorescently-labeled inhibitor probe and 2 nM Streptavidin-Terbium (Cisbio) (final concentrations). Following the one hour incubation, the plates were read for TR-FRET signal at 520/620 nm using an Envision plate reader (Perkin Elmer).
Compounds were ranked into bins A through D as follows for IC50: A indicates <0.1 μM, B indicates 0.1 μM≤IC50<1 μM, C indicates 1 μM≤IC50<5 μM, and D indicates 5 μM≤IC50.

The target in assay [2] is T1, Cbl-b. The assay is described as follows: Cbl-b activity assay (TR-FRET, interaction of Cbl-b with UbcH5B-Ub). The class given is biochemical. On the technique in general: TR-FRET usually uses a lanthanide donor and a delayed reading to cut background.
Where [3] appears, read: Biological Example 1B, read-out: IC50 values in the Cbl-b inhibition assay of Biological Example 1B.
The mark [4] stands for this setting: displacement assay, 0.125 nM Cbl-b, 150 nM fluorescently-labeled inhibitor probe, read-out: Cbl-b activity IC50.
Setting [5] is: high conditions: 100 mM NaCl, 60 nM Src kinase, 12 nM Cbl-b, read-out: Cbl-b activity IC50.

T1 sequence (Q13191 36-427): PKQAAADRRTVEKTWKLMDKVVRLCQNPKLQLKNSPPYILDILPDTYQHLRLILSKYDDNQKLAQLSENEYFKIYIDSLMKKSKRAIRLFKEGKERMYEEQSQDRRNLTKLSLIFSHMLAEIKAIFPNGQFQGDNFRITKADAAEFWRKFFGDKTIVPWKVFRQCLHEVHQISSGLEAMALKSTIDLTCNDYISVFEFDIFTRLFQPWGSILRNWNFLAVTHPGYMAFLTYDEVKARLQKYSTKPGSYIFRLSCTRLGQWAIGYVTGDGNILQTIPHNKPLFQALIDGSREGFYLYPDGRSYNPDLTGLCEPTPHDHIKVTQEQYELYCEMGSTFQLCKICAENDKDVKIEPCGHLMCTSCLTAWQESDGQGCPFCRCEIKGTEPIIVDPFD

Take `Cn1cnnc1CC1(c2cccc(-c3n[nH]c4c(CN5CC[C@H](F)C5)cc(C(F)(F)F)nc34)c2)COC1` [Example 114, (S)-7-((3-fluoropyrrolidin-1-yl)methyl)-3-(3-(3-((4-methyl-4H-1,2,4-triazol-3-yl)methyl)oxetan-3-yl)phenyl)-5-(trifluoromethyl)-1H-pyrazolo[4,3-b]pyridine]: the IC50 at Cbl-b [1] (setting [3]) and on Cbl-b [1] (setting [4]) was less than 100 nM throughout.
Turning to `Cn1cnnc1[C@@H](c1cccc(-c2n[nH]c3c(CN4CC[C@H](F)C4)cc(C(F)(F)F)nc23)c1)C1CCC1` [Example 115, 3-(3-((R)-cyclobutyl(4-methyl-4H-1,2,4-triazol-3-yl)methyl)phenyl)-7-(((S)-3-fluoropyrrolidin-1-yl)methyl)-5-(trifluoromethyl)-1H-pyrazolo[4,3-b]pyridine], the IC50 on Cbl-b [1] (setting [3]) and at Cbl-b [1] (setting [4]) was less than 100 nM each time.
Turning to `CNS(=O)(=O)c1ccc(NC(=O)Nc2cccc([C@H](C)Sc3nncn3C)c2)cc1` [Example 163, (S)—N-methyl-4-(3-(3-(1-((4-methyl-4H-1,2,4-triazol-3-yl)thio)ethyl)phenyl)ureido)benzenesulfonamide], the IC50 on Cbl-b [2] (setting [5]) was not below 5000 nM.
On to `C[C@H](Sc1nncn1C)c1cccc(NC(=O)N2CCC2)c1` [Example 164, (S)—N-(3-(1-(4-methyl-4H-1,2,4-triazol-3-ylthio)ethyl)phenyl)azetidine-1-carboxamide], for which the IC50 on Cbl-b [2] (setting [5]) is not below 5000 nM.
On to `C[C@H](Sc1nncn1C)c1cccc(NC(=O)N2CCS(=O)(=O)CC2)c1` [Example 165, (S)—N-(3-(1-((4-methyl-4H-1,2,4-triazol-3-yl)thio)ethyl)phenyl)thiomorpholine-4-carboxamide 1,1-dioxide], for which the IC50 on Cbl-b [2] (setting [5]) was not below 5000 nM.
As for `Cn1cnnc1[C@H]1C[C@H]1c1cccc(NC(=O)N2CCOc3cccnc32)c1` [Example 166, N-(3-((1R,2S)-2-(4-methyl-4H-1,2,4-triazol-3-yl)cyclopropyl)phenyl)-2,3-dihydro-4H-pyrido[3,2-b][1,4]oxazine-4-carboxamide], the IC50 at Cbl-b [2] (setting [5]) was not below 5000 nM.
Take `CC(Sc1nncn1C)c1cccc(-n2cc(-c3ccccc3)nn2)c1` (stereo not shown) [Example 167, 1-(3-(1-((4-methyl-4H-1,2,4-triazol-3-yl)thio)ethyl)phenyl)-4-phenyl-1H-1,2,3-triazole]: the IC50 on Cbl-b [2] (Biological Example 1A, low or high conditions not stated, read-out: IC50 values in the Cbl-b inhibition assay of Biological Example 1A) is 1000 to 5000 nM; at Cbl-b [2] (setting [5]), 1000 to 5000 nM.

By IC50 is commonly meant the concentration needed to halve the response being measured.
